This note sets out measurements from patent publication US20200190101A1, “Composition Containing Novel Glutamic Acid Derivative And Block Copolymer, And Use Thereof” (Nippon Kayaku Kabushiki Kaisha, priority 2015, published 2020).

Molecules are shown by their SMILES.

Data set [1] in a line: Test on pharmacokinetics of Synthesis Example 1 (tissue concentrations, OS-RC-2 tumor-bearing mice). The class given is in vivo, SCID mice. The settings on record: for Unchanged drug concentration: value after 5 minutes, 5 mg/kg in terms of doxorubicin i.v. As to the method:
Human renal cell cancer OS-RC-2 tumors that had been subcutaneously subcultured in SCID mice were produced into blocks that measured about 2 mm on each side, and the blocks were subcutaneously transplanted into SCID mice using a trocar.
At time points of 5 minutes, 3 hours, and 24 hours after the administration, various tissues such as blood plasma, heart, liver, bone marrow, and tumor were collected under ether anesthesia.

Data set [2] relates to human ovarian cancer SHIN-3 tumors. Description: Test on antitumor effect of Synthesis Example 1, SHIN-3 tumors. The format is in vivo. The settings on record: three times at an interval of 7 days. Here is the method:
By an operation similar to that of Test Example 12, human ovarian cancer SHIN-3 tumors were subcutaneously transplanted into SCID mice, and tumor engraftment was confirmed.
After the administration, the major axis (L) and the minor axis (W) of a tumor were measured using calipers at an interval of 2 to 3 days, the tumor volume was calculated by the formula: (L×W^2)/2, and the tumor volume change rate from the administration initiation day was determined.

Turning to `COc1cccc2c1C(=O)c1c(O)c3c(c(O)c1C2=O)C[C@@](O)(C(=O)CO)CC3OC1CC(NC(=O)OCc2ccc(NC(=O)CCC(N)C(=O)O)cc2)C(O)C(C)O1` (stereo partly drawn) [Synthesis Example 1, (((4-((S)-4-amino-4-carboxybutanamide)benzyl)oxy)carbonyl)doxorubicin], the Unchanged drug concentration in data set [1] (Blood plasma) is 9.36 μg/mL or g; in data set [1] (Bone marrow), 0.336 μg/mL or g; in data set [1] (Heart) it was 1.63 μg/mL or g; in data set [1] (Liver), 60.6 μg/mL or g; in data set [1] (Tumor), 0.192 μg/mL or g. For the same compound, the “Concentration of doxorubicin produced, compared to doxorubicin hydrochloride” value in data set [1] (blood plasma, liver, bone marrow, and heart (GGT expressed at a low level)) was “low”; in data set [1] (tumor (GGT expressed at a high level)) it was “high”. Further, the “Antitumor effect (relative tumor volume) versus control drug” value in data set [2] (20 mg/kg-administered group, i.v.) is “antitumor effect that was equivalent to that of the control drug”. The “Antitumor effect (relative tumor volume)” value in data set [2] (5 or 20 mg/kg i.v.) is reported as “dose-dependent antitumor effect”.
